Experiments:
[1] = target: His-tagged CRBN-DDB1 complex (Homo sapiens, UniProt Q96SW2); test: Time-Resolved Fluorescence Resonance Energy Transfer (TR-FRET / HTRF) CRBN binding assay, displacement of Cy5-labeled thalidomide; conditions: His-CRBN-DDB1, Cy5-thalidomide 8 nM, 1 hour room temperature
CRBN-DDB1 = CRBN-DDB1 (Homo sapiens, UniProt Q96SW2); test: Fluorescence Polarization (FP) CRBN binding assay, probe TM-493 (FAM-BB-100); conditions: CRBN-DDB1, TM-493 probe, 60 min room temperature
Chain of CRBN-DDB1 (Q96SW2 whole entry): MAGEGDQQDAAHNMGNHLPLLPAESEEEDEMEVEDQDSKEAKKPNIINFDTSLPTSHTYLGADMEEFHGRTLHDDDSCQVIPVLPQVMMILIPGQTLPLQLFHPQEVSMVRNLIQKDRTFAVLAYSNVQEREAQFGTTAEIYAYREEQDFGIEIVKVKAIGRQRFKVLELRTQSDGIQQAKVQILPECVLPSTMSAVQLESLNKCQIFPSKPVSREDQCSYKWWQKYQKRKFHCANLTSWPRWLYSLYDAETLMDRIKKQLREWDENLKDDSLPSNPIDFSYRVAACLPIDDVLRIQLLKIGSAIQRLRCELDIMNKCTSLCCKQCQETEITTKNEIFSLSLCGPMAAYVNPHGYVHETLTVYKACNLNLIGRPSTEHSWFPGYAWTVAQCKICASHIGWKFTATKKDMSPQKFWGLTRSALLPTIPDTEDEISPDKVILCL
Chain of CRBN-DDB1 (Q16531 whole entry partner): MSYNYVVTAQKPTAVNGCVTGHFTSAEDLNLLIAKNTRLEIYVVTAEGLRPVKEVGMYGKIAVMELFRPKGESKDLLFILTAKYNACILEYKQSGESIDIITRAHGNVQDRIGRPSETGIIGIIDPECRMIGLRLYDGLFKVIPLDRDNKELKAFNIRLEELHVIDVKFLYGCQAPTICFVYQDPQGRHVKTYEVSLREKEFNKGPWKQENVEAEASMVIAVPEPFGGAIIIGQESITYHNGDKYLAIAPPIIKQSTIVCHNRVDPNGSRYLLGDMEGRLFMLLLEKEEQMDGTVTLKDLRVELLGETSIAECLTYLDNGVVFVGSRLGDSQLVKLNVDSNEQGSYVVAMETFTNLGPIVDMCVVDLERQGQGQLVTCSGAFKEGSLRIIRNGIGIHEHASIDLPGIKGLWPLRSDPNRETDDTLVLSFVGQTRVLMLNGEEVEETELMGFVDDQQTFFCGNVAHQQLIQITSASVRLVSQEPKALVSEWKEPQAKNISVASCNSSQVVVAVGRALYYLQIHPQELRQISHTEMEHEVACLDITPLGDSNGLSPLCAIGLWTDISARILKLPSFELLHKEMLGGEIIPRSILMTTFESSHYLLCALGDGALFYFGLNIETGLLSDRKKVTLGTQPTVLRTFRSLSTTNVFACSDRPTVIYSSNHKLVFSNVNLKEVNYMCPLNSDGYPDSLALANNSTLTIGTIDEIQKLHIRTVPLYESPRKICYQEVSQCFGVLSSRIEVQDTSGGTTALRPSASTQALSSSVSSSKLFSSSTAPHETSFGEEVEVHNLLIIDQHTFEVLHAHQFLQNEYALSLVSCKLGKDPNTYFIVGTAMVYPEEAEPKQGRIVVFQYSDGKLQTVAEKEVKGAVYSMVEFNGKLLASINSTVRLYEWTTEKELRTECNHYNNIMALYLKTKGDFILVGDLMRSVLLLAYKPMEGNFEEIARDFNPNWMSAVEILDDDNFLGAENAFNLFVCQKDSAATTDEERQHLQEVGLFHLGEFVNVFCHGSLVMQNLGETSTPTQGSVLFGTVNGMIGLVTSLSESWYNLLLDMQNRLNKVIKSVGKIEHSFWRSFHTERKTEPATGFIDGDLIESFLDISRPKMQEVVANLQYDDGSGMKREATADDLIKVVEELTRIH

Chain of His-tagged CRBN-DDB1 complex (Q96SW2 whole entry): as the sequence (Q96SW2 whole entry) above
Chain of His-tagged CRBN-DDB1 complex (Q16531 whole entry partner): as the sequence (Q16531 whole entry partner) above

Structure (SMILES) | IC50 [1] | IC50 (CRBN-DDB1)
O=C1Cc2cccc(Cc3ccccc3)c2C(=O)N1 [Compound I-258] | > 100 µM | 30 to 100 µM
O=C1Cc2cccc(Oc3ccccn3)c2C(=O)N1 [Compound I-259] | > 100 µM | 10 to 30 µM
NCCCC#Cc1ccc(Oc2cccc3c2C(=O)NC(=O)C3=O)cc1 [Compound I-264] | < 10 µM | 10 to 30 µM
O=C1NC(=O)c2c(Oc3cccnc3)cccc2C1=O [Compound I-266] | 10 to 30 µM | < 10 µM
O=C1Cc2cccc(COc3ccccc3)c2C(=O)N1 [Compound I-277] | 10 to 30 µM | 10 to 30 µM
O=C1Cc2cccc(CNc3ccccc3)c2C(=O)N1 [Compound I-278] | 10 to 30 µM | 10 to 30 µM
Cc1cccc(CN2C[C@@H]3C(=O)NC(=O)[C@@H]3C2)n1 [Compound I-292] | 10 to 30 µM | > 100 µM

Other lines, results leading:

IC50 [1] | IC50 (CRBN-DDB1) | Structure (SMILES)
> 100 µM | > 100 µM | CN1C(=O)Cc2cccc(Oc3ccccc3)c2C1=O [Compound I-260]
< 10 µM | < 10 µM | NCCCC#Cc1ccc(Oc2cccc3c2C(=O)NC(=O)C3)cc1 [Compound I-265]
10 to 30 µM | < 10 µM | CC(=O)NCc1cccc(Oc2cccc3c2C(=O)NC(=O)C3=O)c1 [Compound I-267]
30 to 100 µM | 10 to 30 µM | CC(=O)NCc1cccc(Oc2cccc3c2C(=O)NC(=O)C3)c1 [Compound I-268]
10 to 30 µM | 10 to 30 µM | CC(C)(C)OC(=O)NCc1cccc(Oc2cccc3c2C(=O)NC(=O)C3)c1 [Compound I-273]
30 to 100 µM | 30 to 100 µM | O=C1Cc2cccc(Oc3cccc4ccncc34)c2C(=O)N1 [Compound I-274]
10 to 30 µM | 10 to 30 µM | O=C1Cc2cccc(Oc3cccc4ccccc34)c2C(=O)N1 [Compound I-275]
30 to 100 µM | 30 to 100 µM | O=C1Cc2ccnc(Oc3ccccc3)c2C(=O)N1 [Compound I-276]
30 to 100 µM | > 100 µM | O=C1NC(=O)[C@@H]2CN(Cc3ccc(-c4ccccc4)cc3)C[C@H]12 [Compound I-319]

Source: patent publication US20220281831A1, “FUSED-GLUTARIMIDE CRBN LIGANDS AND USES THEREOF” (Kymera Therapeutics, Inc., priority 2019, published 2022)
